# Test results reported in ChEMBL document CHEMBL1124312, “Perfluoro-N-[4-(1H-tetrazol-5-ylmethyl)phenyl]alkanamides. A new class of oral antidiabetic agents” (J Med Chem, 1989).
# Several values for one entry are separate records, joined by “and”; a condition that tells them apart may be missing. Equal entries are not always repeated.
# Tested on: Mus musculus
# Experiment: Activity of perorally administered compound at a dose of 20 mg/kg for 4 days against plasma insulin in obese mice
# Format: functional, organism-based
# Design: dose 20 mg/kg
row,Compound,Plasma insulin [µU/mL]
1,CN(C(=O)C(F)(F)C(F)(F)C(F)(F)C(F)(F)C(F)(F)C(F)(F)C(F)(F)F)c1ccc(Cc2nnn(C)n2)cc1,205
2,CN(C(=O)C(F)(F)C(F)(F)C(F)(F)C(F)(F)C(F)(F)C(F)(F)C(F)(F)F)c1ccc(Cc2nnnn2C)cc1,204
3,O=C(Nc1ccc(Cc2nnnn2Cc2ccccc2)cc1)C(F)(F)C(F)(F)C(F)(F)C(F)(F)C(F)(F)C(F)(F)C(F)(F)F,249
4,O=C(Nc1ccc(Cc2nnn(Cc3ccccc3)n2)cc1)C(F)(F)C(F)(F)C(F)(F)C(F)(F)C(F)(F)C(F)(F)C(F)(F)F,204
5,O=C(Nc1ccc(Cc2nn[nH]n2)cc1)C(F)(F)C(F)(F)C(F)(F)C(F)(F)C(F)(F)C(F)(F)C(F)(F)F,140

# Tested on: Mus musculus
# Experiment: Activity of perorally administered compound at a dose of 75 mg/kg for 4 days against plasma glucose in diabetic mice
# Format: functional, organism-based
# Design: dose 75 mg/kg
row,Compound,Plasma glucose [mg/dL]
1,CC1(COc2ccc(CC3SC(=O)NC3=O)cc2)CCCCC1 (stereo not drawn),348
2,O=C(Nc1ccc(Cc2nnn[nH]2)cc1)C(F)(F)C(F)(F)C(F)(F)C(F)(F)C(F)(F)C(F)(F)C(F)(F)C(F)F,124
3,O=C(Nc1ccc(Cc2nn[nH]n2)cc1)C(F)(F)C(F)(F)C(F)(F)C(F)(F)C(F)(F)C(F)(F)C(F)(F)F,163

# Tested on: Mus musculus
# Experiment: Activity of perorally administered compound at a dose of 20 mg/kg for 10 days against plasma glucose in diabetic mice
# Format: functional, organism-based
# Design: dose 20 mg/kg
row,Compound,Plasma glucose [mg/dL]
1,O=C(Nc1ccc(Cc2nn[nH]n2)cc1)C(F)(F)C(F)(F)C(F)(F)F,307
2,CC1(COc2ccc(CC3SC(=O)NC3=O)cc2)CCCCC1 (stereo not drawn),320
3,O=C(Nc1ccc(Cc2nn[nH]n2)cc1)C(F)(F)C(F)(F)C(F)(F)C(F)(F)C(F)(F)C(F)(F)C(F)(F)F,256

# Tested on: Mus musculus
# Experiment: Activity of perorally administered compound at a dose of 75 mg/kg for 4 days against plasma insulin in diabetic mice
# Format: functional, organism-based
# Design: dose 75 mg/kg
row,Compound,Plasma insulin [µU/mL]
1,CC1(COc2ccc(CC3SC(=O)NC3=O)cc2)CCCCC1 (stereo not drawn),25
2,O=C(Nc1ccc(Cc2nnn[nH]2)cc1)C(F)(F)C(F)(F)C(F)(F)C(F)(F)C(F)(F)C(F)(F)C(F)(F)C(F)F,34
3,O=C(Nc1ccc(Cc2nn[nH]n2)cc1)C(F)(F)C(F)(F)C(F)(F)C(F)(F)C(F)(F)C(F)(F)C(F)(F)F,32

# Tested on: Mus musculus
# Experiment: Activity of perorally administered compound at a dose of 75 mg/kg for 4 days against plasma glucose in obese mice
# Format: functional, organism-based
# Design: dose 75 mg/kg
row,Compound,Plasma glucose [mg/dL]
1,O=C(Nc1ccc(Cc2nnn[nH]2)cc1)C(F)(F)C(F)(F)C(F)(F)C(F)(F)C(F)(F)C(F)(F)C(F)(F)C(F)(F)C(F)(F)F,144
2,O=C(Nc1ccc(Cc2nnn[nH]2)cc1)C(F)(F)C(F)(F)C(F)(F)C(F)(F)C(F)(F)C(F)(F)C(F)(F)C(F)(F)C(F)(F)C(F)F,118
3,O=C(Nc1ccc(Cc2nnn[nH]2)cc1)C(F)(F)F,138
4,O=C(Nc1ccc(Cc2nn[nH]n2)cc1)C(F)(F)C(F)(F)C(F)(F)F,100
5,O=C(Nc1ccc(Cc2nnn[nH]2)cc1)C(F)(F)C(F)(F)C(F)(F)C(F)(F)F,170
6,CC1(COc2ccc(CC3SC(=O)NC3=O)cc2)CCCCC1 (stereo not drawn),107
7,O=C(Nc1ccc(Cc2nnn[nH]2)cc1)C(F)(F)C(F)(F)C(F)(F)C(F)(F)C(F)(F)C(F)(F)C(F)(F)C(F)(F)F,106
8,O=C(Nc1ccc(Cc2nnn[nH]2)cc1)C(F)(F)C(F)(F)F,120
9,O=C(Nc1ccc(Cc2nnn[nH]2)cc1)C(F)(F)C(F)(F)C(F)(F)C(F)(F)C(F)(F)C(F)(F)C(F)(F)C(F)F,93
10,O=C(Nc1ccc(Cc2nnn[nH]2)cc1)C(F)(F)C(F)(F)C(F)(F)C(F)(F)C(F)(F)C(F)(F)F,162
11,O=C(Nc1ccc(Cc2nn[nH]n2)cc1)C(F)(F)C(F)(F)C(F)(F)C(F)(F)C(F)(F)C(F)(F)C(F)(F)F,87

# Tested on: Mus musculus
# Experiment: Activity of perorally administered compound at a dose of 20 mg/kg for 10 days against plasma insulin in diabetic mice
# Format: functional, organism-based
# Design: dose 20 mg/kg
row,Compound,Plasma insulin [µU/mL]
1,O=C(Nc1ccc(Cc2nn[nH]n2)cc1)C(F)(F)C(F)(F)C(F)(F)F,19
2,CC1(COc2ccc(CC3SC(=O)NC3=O)cc2)CCCCC1 (stereo not drawn),20
3,O=C(Nc1ccc(Cc2nn[nH]n2)cc1)C(F)(F)C(F)(F)C(F)(F)C(F)(F)C(F)(F)C(F)(F)C(F)(F)F,14

# Tested on: Mus musculus
# Experiment: Activity of perorally administered compound at a dose of 20 mg/kg for 4 days against plasma glucose in obese mice
# Format: functional, organism-based
# Design: dose 20 mg/kg
row,Compound,Plasma glucose
1,CN(C(=O)C(F)(F)C(F)(F)C(F)(F)C(F)(F)C(F)(F)C(F)(F)C(F)(F)F)c1ccc(Cc2nnn(C)n2)cc1,128 mg/dL
2,CN(C(=O)C(F)(F)C(F)(F)C(F)(F)C(F)(F)C(F)(F)C(F)(F)C(F)(F)F)c1ccc(Cc2nnnn2C)cc1,119 mg/dL
3,O=C(Nc1ccc(Cc2nnn[nH]2)cc1)C(F)(F)C(F)(F)C(F)(F)C(F)(F)C(F)(F)C(F)(F)C(F)(F)C(F)(F)C(F)(F)F,133 mg/dL
4,O=C(Nc1ccc(Cc2nnn[nH]2)cc1)C(F)(F)C(F)(F)C(F)(F)C(F)(F)C(F)(F)C(F)(F)C(F)(F)C(F)(F)C(F)(F)C(F)F,123 mg/dL
5,O=C(Nc1ccc(Cc2nnn[nH]2)cc1)C(F)(F)F,273 mg/dL
6,O=C(Nc1ccc(Cc2nn[nH]n2)cc1)C(F)(F)C(F)(F)C(F)(F)F,213 mg/dL
7,O=C(Nc1ccc(Cc2nnn[nH]2)cc1)C(F)(F)C(F)(F)C(F)(F)C(F)(F)F,207 mg/dL
8,CC1(COc2ccc(CC3SC(=O)NC3=O)cc2)CCCCC1 (stereo not drawn),191 mg/dL
9,O=C(Nc1ccc(Cc2nnn[nH]2)cc1)C(F)(F)C(F)(F)C(F)(F)C(F)(F)C(F)(F)C(F)(F)C(F)(F)C(F)(F)F,128 mg/dL
10,O=C(Nc1ccc(Cc2nnnn2Cc2ccccc2)cc1)C(F)(F)C(F)(F)C(F)(F)C(F)(F)C(F)(F)C(F)(F)C(F)(F)F,152 mg/dL
11,O=C(Nc1ccc(Cc2nnn[nH]2)cc1)C(F)(F)C(F)(F)F,198 mg/dL
12,O=C(Nc1ccc(Cc2nnn[nH]2)cc1)C(F)(F)C(F)(F)C(F)(F)C(F)(F)C(F)(F)C(F)(F)C(F)(F)C(F)F,108 mg/dL
13,O=C(Nc1ccc(Cc2nnn[nH]2)cc1)C(F)(F)C(F)(F)C(F)(F)C(F)(F)C(F)(F)C(F)(F)F,231 mg/dL
14,O=C(Nc1ccc(Cc2nnn(Cc3ccccc3)n2)cc1)C(F)(F)C(F)(F)C(F)(F)C(F)(F)C(F)(F)C(F)(F)C(F)(F)F,119 mg/dL
15,O=C(Nc1ccc(Cc2nn[nH]n2)cc1)C(F)(F)C(F)(F)C(F)(F)C(F)(F)C(F)(F)C(F)(F)C(F)(F)F,111 mg/dL and 119 mg/dL
